Test results reported in US11053204B2, “Pyrimidinyloxy benzene derivatives as herbicides” (FMC Corporation, priority 2015, dated 2021).

Legend:
Format in all cases: in vivo
rice (Oryza sativa) = experiment: Test B flooded paddy test, plant response rating; conditions: 250 g ai/ha; Flood; scale of 0 to 100 where 0 is no effect and 100 is complete control; 13 to 15 days
Outline: (§1)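 Pots were flooded to 3 cm above the soil surface at treatment, compound applied directly to the paddy water, and that depth held throughout. Plants were kept in a greenhouse for 13 to 15 days, then visually rated against untreated controls.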

[1] = test system: ducksalad (Heteranthera limosa); experiment: Test B flooded paddy test, plant response rating; conditions: 250 g ai/ha; Flood; scale of 0 to 100 where 0 is no effect and 100 is complete control; 13 to 15 days
Outline: as §1

[2] = test system: sedge, umbrella (small-flower umbrella sedge, Cyperus difformis); experiment: Test B flooded paddy test, plant response rating; conditions: 250 g ai/ha; Flood; scale of 0 to 100 where 0 is no effect and 100 is complete control; 13 to 15 days
Outline: as §1

[3] = test system: barnyardgrass (Echinochloa crus-galli); experiment: Test B flooded paddy test, plant response rating; conditions: 250 g ai/ha; Flood; scale of 0 to 100 where 0 is no effect and 100 is complete control; 13 to 15 days
Outline: as §1

[4] = test system: ragweed (common ragweed, Ambrosia elatior); experiment: Test A preemergence, visual injury rating
Outline: (§2)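 Compounds in non-phytotoxic solvent with surfactant applied as soil spray preemergence, or postemergence to plants 2-10 cm at one- to two-leaf stage, in loam/sand. After approximately 10 days in greenhouse, injury rated visually versus untreated controls, 0 (no effect) to 100 (complete control).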

[5] = test system: pigweed (Amaranthus retroflexus); experiment: Test A preemergence, visual injury rating
Outline: as §2

[6] = test system: giant foxtail (Setaria faberii); experiment: Test A preemergence, visual injury rating
Outline: as §2

[7] = test system: Italian ryegrass (Lolium multiflorum); experiment: Test A preemergence, visual injury rating
Outline: as §2

[8] = test system: barnyardgrass (Echinochloa crus-galli); experiment: Test A preemergence, visual injury rating
Outline: as §2

kochia (Kochia scoparia) [9] = experiment: Test A preemergence, visual injury rating
Outline: as §2

[10] = test system: ragweed (common ragweed, Ambrosia elatior); experiment: Test A postemergence, visual injury rating; conditions: 0 is no effect, 100 is complete control
Outline: as §2

[11] = test system: pigweed (Amaranthus retroflexus); experiment: Test A postemergence, visual injury rating; conditions: 0 is no effect, 100 is complete control
Outline: as §2

corn (Zea mays) = experiment: Test A postemergence, visual injury rating; conditions: 0 is no effect, 100 is complete control
Outline: as §2

[12] = test system: wheat (Triticum aestivum); experiment: Test A postemergence, visual injury rating; conditions: 0 is no effect, 100 is complete control
Outline: as §2

[13] = test system: giant foxtail (Setaria faberii); experiment: Test A postemergence, visual injury rating; conditions: 0 is no effect, 100 is complete control
Outline: as §2

[14] = test system: galium (catchweed bedstraw, Galium aparine); experiment: Test A postemergence, visual injury rating; conditions: 0 is no effect, 100 is complete control
Outline: as §2

[15] = test system: Italian ryegrass (Lolium multiflorum); experiment: Test A postemergence, visual injury rating; conditions: 0 is no effect, 100 is complete control
Outline: as §2

[16] = test system: blackgrass (Alopecurus myosuroides); experiment: Test A postemergence, visual injury rating; conditions: 0 is no effect, 100 is complete control
Outline: as §2

[17] = test system: barnyardgrass (Echinochloa crus-galli); experiment: Test A postemergence, visual injury rating; conditions: 0 is no effect, 100 is complete control
Outline: as §2

kochia (Kochia scoparia) [18] = experiment: Test A postemergence, visual injury rating; conditions: 0 is no effect, 100 is complete control
Outline: as §2

[19] = 31 g ai/ha, 0 to 100 scale, 0 no effect, 100 complete control
[20] = 125 g ai/ha, 0 to 100 scale (0 no effect, 100 complete control)
[21] = 31 g ai/ha, 0 to 100 scale, approximately 10 days

O=C(OC/C=C/C(F)(F)F)c1c(Br)cccc1Oc1ncc(Cl)cn1 [Compound 50]
Plant response rating, Rice (rice (Oryza sativa)): 0
Plant response rating, Ducksalad [1]: 65
Plant response rating, Sedge, Umbrella [2]: 80
Plant response rating, Barnyardgrass [3]: 0
Plant response rating, Ragweed [4, 19]: 0
Ragweed plant response rating [4, 20]: 0
Plant response rating, Pigweed [5, 19]: 0
Pigweed plant response rating [5, 20]: 90
Plant response rating, Foxtail, Giant [6, 19]: 50
Foxtail, Giant plant response rating [6, 20]: 100
Plant response rating, Ryegrass, Italian [7, 19]: 0
Ryegrass, Italian plant response rating [7, 20]: 0
Plant response rating, Barnyardgrass [8, 19]: 0
Barnyardgrass plant response rating [8, 20]: 10
Plant response rating, Kochia (kochia (Kochia scoparia) [9]; [19]): 0
Kochia plant response rating (kochia (Kochia scoparia) [9]; [20]): 0
Ragweed plant response rating [10, 21]: 0
Ragweed plant response rating (0 to 100 scale) ([10]; 125 g ai/ha): 0
Pigweed plant response rating [11, 21]: 80
Pigweed plant response rating (0 to 100 scale) ([11]; 125 g ai/ha): 100
Corn plant response rating (corn (Zea mays); [21]): 10
Corn plant response rating (0 to 100 scale) (corn (Zea mays); 125 g ai/ha): 10
Wheat plant response rating [12, 21]: 0
Wheat plant response rating (0 to 100 scale) ([12]; 125 g ai/ha): 0
Foxtail, Giant plant response rating [13, 21]: 20
Foxtail, Giant plant response rating (0 to 100 scale) ([13]; 125 g ai/ha): 70
Galium plant response rating [14, 21]: 60
Galium plant response rating (0 to 100 scale) ([14]; 125 g ai/ha): 90
Ryegrass, Italian plant response rating [15, 21]: 0
Ryegrass, Italian plant response rating (0 to 100 scale) ([15]; 125 g ai/ha): 20
Blackgrass plant response rating [16, 21]: 0
Blackgrass plant response rating (0 to 100 scale) ([16]; 125 g ai/ha): 20
Barnyardgrass plant response rating [17, 21]: 0
Barnyardgrass plant response rating (0 to 100 scale) ([17]; 125 g ai/ha): 20
Kochia plant response rating (kochia (Kochia scoparia) [18]; [21]): 60
Kochia plant response rating (0 to 100 scale) (kochia (Kochia scoparia) [18]; 125 g ai/ha): 90
